According to ChEMBL document CHEMBL6120994, “Unravelling the potential of natural chelating agents in the control of Staphylococcus aureus and Pseudomonas aeruginosa biofilms” (Eur J Med Chem, 2025):
The source made the active and inactive calls. The calls are words filed in the database; no cut-off is given here.

Experiments:
[1] = tested on: Staphylococcus aureus; assay: Inhibition of virulence production in pre-established 24 hr-old Staphylococcus aureus CECT 976 biofilms assessed as diameter of protease halo at 1XMTC measured after 72 hrs (reference value: 12.3 to 13.3 mm); format: functional
[2] = tested on: Staphylococcus aureus; assay: Inhibition of virulence production in pre-established 24 hr-old Staphylococcus aureus CECT 976 biofilms assessed as diameter of protease halo at 10XMTC measured after 72 hrs (reference value: 12.5 to 13.3 mm); format: functional
[3] = tested on: Staphylococcus aureus; assay: Antibiotic adjuvant activity against Staphylococcus aureus CECT 976 assessed as potentiation of tobramycin-induced antibacterial activity by measuring tobramycin MIC at 62.5 ug/ml measured after 24 hrs by checkerboard assay (reference value: 4 ug/ml); format: functional; settings: dose 62.5 µg/ml
[4] = Metal chelating activity at iron(III) in chrome azurol sulphonate solution incubated for 30 mins by spectrophotometric analysis; settings: dose 6.25-1000 µg/ml
[5] = tested on: Pseudomonas aeruginosa; assay: (§1) Antibiotic adjuvant activity against preestablished 24-hr old Pseudomonas aeruginosa ATCC 10145 assessed as potentiation of ciprofloxacin-induced antibiofilm activity by measuring reduction of biomass at 1000 ug/ml measured after 24 hrs in presence of 1/8XMIC ciprofloxacin by crystal violet staining method; format: functional, organism-based; settings: dose 1000.0 µg/ml
[6] = tested on: Pseudomonas aeruginosa; assay: Antibiofilm activity against preestablished 24 hr-old Pseudomonas aeruginosa ATCC 10145 assessed as biomass removal at 1000 to 10000 ug/ml measured after 24 hrs by crystal violet staining method; format: functional; settings: dose 1000-10000 µg/ml, at 1000 to 10000 µg/mL
[7] = tested on: Staphylococcus aureus; assay: Antibacterial activity against Staphylococcus aureus CECT 976 assessed as inhibition of bacterial growth incubated for 24 hrs by broth microdilution method; format: functional
[8] = tested on: Staphylococcus aureus; assay: Inhibition of virulence production in Staphylococcus aureus CECT 976 biofilms assessed as diameter of lipases halo at 1/2XMTC measured after 48 hrs in presence of 1/8XMIC tobramycin (reference value: 12.5 to 12.8 mm); format: functional
[9] = tested on: Pseudomonas aeruginosa; assay: Antibiotic adjuvant activity against Pseudomonas aeruginosa ATCC 10145 assessed as potentiation of ciprofloxacin-induced antibiofilm activity by measuring reduction in metabolic activity of biofilm cells at 500 ug/ml in presence of ciprofloxacin by resazurin staining based fluorescence analysis; format: functional, organism-based; settings: dose 500.0 µg/ml
[10] = Cytotoxicity against human HepG2 cells assessed as metabolic activity by measuring resazurin reduction at 93.5 to 1000 ug/ml measured after 24 hrs by resazurin reduction method; format: toxicity, cell-based; settings: at 93.5 to 1000 µg/mL, dose 93.5-1000 µg/ml, read-out: Activity
[11] = tested on: HepG2; assay: Induction of ROS production in human HepG2 cells assessed as DCF fluorescence at 90 to 1000 ug/ml measured after 24 hrs by DCFH-DA staining based fluorescence analysis; format: toxicity, cell-based; settings: hepg2, 24 h, at 90 to 1000 µg/mL, dose 90-1000 µg/ml
[12] = tested on: Staphylococcus aureus; assay: Inhibition of virulence production in pre-established 24 hr-old Staphylococcus aureus CECT 976 biofilms assessed as diameter of siderophores halo at 1XMTC measured after 48 hrs (reference value: 11.5 to 11.8 mm); format: functional
[13] = tested on: Staphylococcus aureus; assay: Inhibition of virulence production in pre-established 24 hr-old Staphylococcus aureus CECT 976 biofilms assessed as diameter of siderophores halo at 10XMTC measured after 48 hrs (reference value: 11.5 to 11.8 mm); format: functional
[14] = tested on: Staphylococcus aureus; assay: Antibiofilm activity against Staphylococcus aureus CECT 976 assessed as reduction in biomass production at 500 to 1000 ug/ml measured after 24 hrs by crystal violet staining method; format: functional; settings: dose 500-1000 µg/ml, at 500 to 1000 µg/mL
[15] = tested on: Staphylococcus aureus; assay: Inhibition of virulence production in Staphylococcus aureus CECT 976 biofilms assessed as diameter of siderophores halo at 1/2XMTC measured after 48 hrs in presence of 1/8XMIC tobramycin (reference value: 10.5 +/-0.6 mm); format: functional
[16] = tested on: Cell membrane; assay: Disruption of membrane integrity in pre-established 24 hr-old Staphylococcus aureus CECT 976 biofilm at 10XMTC measured after 24 hrs by SYTO9/PI dye based epifluorescence microscopy; format: subcellular
[17] = tested on: Cell membrane; assay: Disruption of membrane integrity in pre-established 24 hr-old Staphylococcus aureus CECT 976 assessed as reduction in number of cells at 10XMTC measured after 24 hrs in presence of 1XMIC tobramycin by SYTO9/PI dye based epifluorescence microscopy
[18] = tested on: HepG2; assay: Cytotoxicity against human HepG2 cells assessed as cell mass by measuring SRB binding at 93.5 to 1000 ug/ml measured after 24 hrs by SRB assay; format: toxicity, cell-based; settings: hepg2, 24 h, at 93.5 to 1000 µg/mL, dose 93.5-1000 µg/ml
[19] = tested on: Staphylococcus aureus; assay: Inhibition of virulence production in pre-established 24 hr-old Staphylococcus aureus CECT 976 biofilms assessed as diameter of lipases halo at 10XMTC measured after 48 hrs in presence of 1/2XMIC tobramycin (reference value: 11.5 to 12.3 mm); format: functional
[20] = tested on: Staphylococcus aureus; assay: Inhibition of virulence production in pre-established 24 hr-old Staphylococcus aureus CECT 976 biofilms assessed as diameter of siderophores halo at 10XMTC measured after 48 hrs in presence of 1XMIC tobramycin (reference value: 11.3 +/-0.5 mm); format: functional
[21] = tested on: Pseudomonas aeruginosa; assay: as §1, with “CFU biofilm cells” for “biomass”, “visual counting” for “crystal violet staining”; format: functional, organism-based; settings: dose 1000.0 µg/ml
[22] = tested on: Staphylococcus aureus; assay: Inhibition of virulence production in pre-established 24 hr-old Staphylococcus aureus CECT 976 biofilms assessed as diameter of lipases halo at 10XMTC measured after 48 hrs (reference value: 11.8 to 12 mm); format: functional
[23] = tested on: Staphylococcus aureus; assay: Antibiofilm activity against preestablished 24 hr-old Staphylococcus aureus CECT 976 assessed as reduction in metabolic activity of biofilm cells at MTC by resazurin staining based fluorescence analysis; format: functional, organism-based
[24] = tested on: Staphylococcus aureus; assay: Antibiofilm activity against Staphylococcus aureus CECT 976 assessed as reduction in metabolic activity of biofilm cells at 500 to 1000 ug/ml by resazurin staining based fluorescence analysis; format: functional; settings: dose 500-1000 µg/ml; at 500 to 1000 µg/mL
[25] = tested on: Staphylococcus aureus; assay: Inhibition of virulence production in pre-established 24 hr-old Staphylococcus aureus CECT 976 biofilms assessed as diameter of gelatinases halo at 10XMTC measured after 48 hrs in presence of 1XMIC tobramycin (reference value: 9.5 to 10 mm); format: functional
[26] = tested on: Pseudomonas aeruginosa; assay: Antibacterial activity against Pseudomonas aeruginosa ATCC 10145 assessed as inhibition of bacterial growth by measuring inhibition zone diameter at 100 ug/ml incubated for 24 hrs in presence of gentamicin by disc diffusion method (reference value: 8.25 +/-0.5 mm); format: functional; settings: read-out: DIZ
[27] = tested on: Pseudomonas aeruginosa; assay: Antibacterial activity against Pseudomonas aeruginosa ATCC 10145 assessed as inhibition of bacterial growth incubated for 24 hrs by broth microdilution method; format: functional
[28] = tested on: Staphylococcus aureus; assay: Antibacterial activity against Staphylococcus aureus CECT 976 assessed as inhibition of bacterial growth by measuring inhibition zone diameter at 1000 ug/ml incubated for 24 hrs in presence of tetracycline by disc diffusion method (reference value: 24 +/- 1.41 mm); format: functional; settings: read-out: DIZ

| SMILES | Activity [1] | Activity [2] | MIC [3] | Activity [4] | Activity [5] | inhibition (INH) [6] | MIC [7] | Activity [8] | Activity [9] | viability at 24 h [10] | Activity [11] | Activity [12] | Activity [13] | inhibition (INH) [14] | Activity [15] | Activity [16] | Activity [17] | Activity [18] | Activity [19] | Activity [20] | further results |
| --- | --- | --- | --- | --- | --- | --- | --- | --- | --- | --- | --- | --- | --- | --- | --- | --- | --- | --- | --- | --- | --- |
| O=c1cc(CO)occ1O [KOJIC ACID] | 3.5 mm | 0 mm | 1 µg/mL | Dose-dependent-effect | inactive | 15% | > 1000 µg/mL | 2.5 mm | inactive | > 80% | ~ 80% | 10 mm | 9.3 mm | 26% | 9 mm | inactive | Active | > 90% | 2 mm | 10 mm | Activity [21]: inactive; Activity [22]: 2.5 mm; Activity [23]: inactive; inhibition (INH) [24]: 40%; Activity [25]: 0 mm; zone of inhibition at 100 µg/mL [26]: 12 mm; MIC [27]: > 1000 µg/mL; zone of inhibition at 1000 µg/mL [28]: 27.2 mm |
| Cc1occc(=O)c1O [MALTOL] | 3.5 mm | 0 mm | 1 µg/mL | Dose-dependent-effect | inactive | 15% | > 1000 µg/mL | 2 mm | inactive | > 80% | ~ 116% | 10 mm | 10 mm | 26% | 10 mm | inactive | Active | > 90% | 2.3 mm | 10.3 mm | Activity [21]: inactive; Activity [22]: 2.5 mm; Activity [23]: inactive; inhibition (INH) [24]: 40%; Activity [25]: 0 mm; zone of inhibition at 100 µg/mL [26]: 11.8 mm; MIC [27]: > 1000 µg/mL; zone of inhibition at 1000 µg/mL [28]: 25.8 mm |
